From patent US10556098B2, “Microneedle array coated with drug composition” (TEIJIN LIMITED, priority 2012, dated 2020)

How the values were obtained:
in vivo = test: in vivo; design: species or system SD rat; settings: rat
Description: The hair of the nine-week old male SD rat's abdomen was removed with a hair clipper and a shaver. […] Also, the microneedle array after the administration was immersed in 75% methanol, and the amount of the collected drug was measured with a HPLC.

[1] = design: species or system SD rat; settings: rat, in vivo
Description: Additive: 0.5 w/w sodium carboxymethylcellulose ([…] % hydroxypropylcellulose 1000-5000 mPa·s […] Water: 97.75 w/w % The coater shown in FIG. 5 (the volume of a drug aqueous solution: 4 ml) was used. […] After coating said microneedle array with the solution, the microneedle array was dried at room temperature (20-25° C.) for 60 seconds. The hair of the nine-week old male SD rat's abdomen was removed with a hair clipper and a shaver. The microneedle array of FIG. 7 was pressed onto the rat's skin with a finger, and fixed with tape. After one hour, the microneedle array was removed. In order to evaluate the amount of residual desmopressin acetate (the amount remained on the skin surface and the amount attached to the microneedle array), desmopressin acetate was collected as follows. The skin surface was wiped with Kimwipes® impregnated with ethanol, and the amount of the drug collected from the skin was investigated by measuring the drug in the Kimwipes® with a HPLC. The collected microneedle array was immersed in 75% methanol, and the amount of the collected drug was measured with a HPLC.

NC(=O)CC[C@@H]1NC(=O)[C@H](Cc2ccccc2)NC(=O)[C@H](Cc2ccc(O)cc2)NC(=O)CCSSC[C@@H](C(=O)N2CCC[C@H]2C(=O)N[C@H](CCCN=C(N)N)C(=O)NCC(N)=O)NC(=O)[C@H](CC(N)=O)NC1=O [desmopressin acetate]
AUC (in vivo; male, SD, 4.88 ug): 14.3 ng·h/mL | Skin absorption amount (in vivo): >4.83 | Transfer into the blood (change in blood levels, FIG. 8) (in vivo): rapidly transferred in the blood | Amount remained on microneedle array (in vivo; 0.5 h): <0.025 | Amount remained on skin surface (in vivo; 0.5 h): <0.025 | Needles after 1 hour adhesion C (residual drug on microneedle array) [1]: <0.025 µg | Skin after 1 hour adhesion D (residual drug on skin surface) [1]: <0.025 µg
